US20190055235A1, “SUBSTITUTED BICYCLIC COMPOUNDS AS BROMODOMAIN INHIBITORS” (ZENITH EPIGENETICS LTD., priority 2014, published 2019)

Key:
hIL-17 mRNA = experiment: Inhibition of hIL-17 mRNA transcription in OKT3-stimulated human peripheral blood mononuclear cells; format: cell-based; conditions: human PBMC, 1 h pretreatment, OKT3 antibody, 6 h, real-time PCR; read-out: IL-17 activity
Description: Human peripheral blood mononuclear cells were plated (2.0×10^5 cells per well) in a 96-well plate in 45 μL OpTimizer T Cell expansion media (Life Technologies) containing 20 ng/ml IL-2 and penicillin/streptomycin. The cells were treated with increasing concentrations of the test compound or DMSO (0.1%), and were incubated at 37° C., 5% CO2 for 1 h before addition of 10× stock OKT3 antibody at 10 ug/ml in media. Triplicate wells were used for each concentration. Cells were incubated at 37° C., 5% CO2 for 6 h before the cells were harvested. At time of harvest, cells were pelleted by centrifugation at 800 rpm for 5 min. Cells were harvested using the mRNA Catcher PLUS kit according to manufacturer's instructions. The eluted mRNA was then used in a one-step quantitative real-time PCR reaction, using components of the RNA UltraSense™ One-Step Kit (Life Technologies) together with Applied Biosystems TaqMan® primer-probes for hIL-17 and Cyclophilin. Real-time PCR plates were run on a ViiA™7 real time PCR machine (Applied Biosystems). The data was analyzed, and the Ct values for hIL-17 were normalized to an internal control prior to determining the fold induction of each unknown sample, relative to the control.

hIL-6 mRNA = experiment: Inhibition of hIL-6 mRNA transcription in PMA-differentiated, LPS-stimulated U937 cells; format: cell-based; conditions: Homo sapiens, U-937; U937 cells differentiated with PMA, 1 h pretreatment, 1 ug/mL LPS, 3 h, real-time PCR; read-out: IL-6 activity
Description: Human leukemic monocyte lymphoma U937 cells (CRL-1593.2) were plated at a density of 3.2×10^4 cells per well in a 96-well plate in 100 μL RPMI-1640 containing 10% FBS and penicillin/streptomycin, and were differentiated into macrophages for 3 days in 60 ng/mL PMA ([…]) at 37° C. in 5% CO2 prior to the addition of compound. The cells were pretreated for 1 h with increasing concentrations of test compound in 0.1% DMSO prior to stimulation with 1 ug/mL lipopolysaccharide from Escherichia coli. Triplicate wells were used for each concentration. The cells were incubated at 37′C, 5% CO2 for 3 h before the cells were harvested. At time of harvest, media was removed and cells were rinsed in 200 μL PBS. Cells were harvested using the mRNA Catcher PLUS kit according to manufacturer's instructions. The eluted mRNA was then used in a one-step quantitative real-time PCR reaction using components of the RNA UltraSense™ One-Step Kit (Life Technologies) together with Applied Biosystems TaqMan® primer-probes for hIL-6 and Cyclophilin. Real-time PCR plates were run on a ViiA™7 real time PCR machine (Applied Biosystems). The data was analyzed, and the Ct values for hIL-6 were normalized to an internal control prior to determining the fold expression of each sample, relative to the control.

[1] = target: T1, Brd4 bromodomain 1 (BRD4(1)) (Homo sapiens, UniProt O60885); experiment: Inhibition of tetra-acetylated histone H4 binding to Brd4 bromodomain 1 (AlphaScreen); conditions: His-tagged BRD4(1) at 20 nM, biotinylated tetra-acetylated histone H4 peptide, 30 min incubation
T1 construct: N-terminally His-tagged bromodomains (BRD4(1) at 20 nM and BRD4(2) at 100 nM); made in house; host or cells: E. coli BL21(DE3)
Description: Proteins were cloned and overexpressed with a N-terminal 6×His tag, then purified by nickel affinity followed by size exclusion chromatography. Briefly, E. coli BL21(DE3) cells were transformed with a recombinant expression vector encoding N-terminally Nickel affinity tagged bromodomains from Brd2, Brd3, Brd4. Cell cultures were incubated at 37° C. with shaking to the appropriate density and induced overnight with IPTG. The supernatant of lysed cells was loaded onto Ni-IDA column for purification. Eluted protein was pooled, concentrated and further purified by size exclusion chromatography. Fractions representing monomeric protein were pooled, concentrated, aliquoted, and frozen at −80° C. for use in subsequent experiments.
Binding of tetra-acetylated histone H4 peptide (Millipore) and BET bromodomains was confirmed by Amplified Luminescent Proximity Homogenous Assay (AlphaScreen). N-terminally His-tagged bromodomains (BRD4(1) at 20 nM and BRD4(2) at 100 nM) and biotinylated tetra-acetylated histone H4 (10-25 nM) were incubated in the presence of nickel chelate acceptor beads and streptavidin donor beads (PerkinAlmer, 6760000K) added to a final concentration of 2 μg/ml under green light in a white 96 well microtiter plate (Greiner). For inhibition assays, serially diluted compounds were added to the reaction mixtures in a 0.1% final concentrations of DMSO. Final buffer concentrations were 50 mM HEPES, 100 mM NaCl and 0.1% BSA buffer, pH 7.4 and optimized to 30 min incubation time. Assay plates were read at 570 nm on a Synergy H4 Plate Reader (Biotek). IC50 values were determined from a dose response curve.

CSc1ccc(Cn2c(C)nc3ncc(-c4c(C)noc4C)cc32)cc1 [Example 1, 3,5-Dimethyl-4-(2-methyl-1-(4-(methylthio)benzyl)-1H-imidazo[4,5-b]pyridin-6-yl)isoxazole]
IC50 (hIL-17 mRNA): 300 to 3000 nM
IC50 (hIL-6 mRNA): 300 to 3000 nM
IC50 [1]: ≤ 300 nM

COC(=O)c1cccc(Cn2c(C)nc3ncc(-c4c(C)noc4C)cc32)c1 [Example 2, Methyl 3-((6-(3,5-dimethylisoxazol-4-yl)-2-methyl-1H-imidazo[4,5-b]pyridin-1-yl)methyl)benzoate]
IC50 (hIL-17 mRNA): 300 to 3000 nM
IC50 (hIL-6 mRNA): 300 to 3000 nM
IC50 [1]: ≤ 300 nM

COC(=O)c1ccc(Cn2c(C)nc3ncc(-c4c(C)noc4C)cc32)cc1 [Example 3, Methyl 4-((6-(3,5-dimethylisoxazol-4-yl)-2-methyl-1H-imidazo[4,5-b]pyridin-1-yl)methyl)benzoate]
IC50 (hIL-6 mRNA): 300 to 3000 nM
IC50 [1]: ≤ 300 nM

CSc1cccc(Cn2c(C)nc3ncc(-c4c(C)noc4C)cc32)c1 [Example 4, 3,5-Dimethyl-4-(2-methyl-1-(3-(methylthio)benzyl)-1H-imidazo[4,5-b]pyridin-6-yl)isoxazole]
IC50 (hIL-17 mRNA): 3000 to 30000 nM
IC50 (hIL-6 mRNA): 300 to 3000 nM
IC50 [1]: ≤ 300 nM

Cc1noc(C)c1-c1cnc2nc(C)n(Cc3ccc([S+](C)[O-])cc3)c2c1 (centres unmarked) [Example 5, 3,5-Dimethyl-4-(2-methyl-1-(4-(methylsulfinyl)benzyl)-1H-imidazo[4,5-b]pyridin-6-yl)isoxazole]
IC50 [1]: ≤ 300 nM

Cc1noc(C)c1-c1cnc2nc(C)n(Cc3cccc(C(=O)O)c3)c2c1 [Example 6, 3-((6-(3,5-Dimethylisoxazol-4-yl)-2-methyl-1H-imidazo[4,5-b]pyridin-1-yl)methyl)benzoic acid]
IC50 [1]: 3000 to 30000 nM

Cc1noc(CO)c1-c1cnc2nc(C)n(Cc3ccccc3)c2c1 [Example 7, (4-(1-Benzyl-2-methyl-1H-imidazo[4,5-b]pyridin-6-yl)-3-methylisoxazol-5-yl)methanol]
IC50 (hIL-6 mRNA): 300 to 3000 nM
IC50 [1]: ≤ 300 nM

Cc1nocc1-c1cnc2nc(C)n(Cc3ccccc3)c2c1 [Example 8, 4-(1-Benzyl-2-methyl-1H-imidazo[4,5-b]pyridin-6-yl)-3-methylisoxazole]
IC50 (hIL-6 mRNA): 300 to 3000 nM
IC50 [1]: ≤ 300 nM

Cc1noc(C)c1-c1ccc2[nH]nc(CN3CCC(F)(F)CC3)c2c1 [Example 9, 4-(3-((4,4-Difluoropiperidin-1-yl)methyl)-1H-indazol-5-yl)-3,5-dimethylisoxazole]
IC50 (hIL-17 mRNA): 300 to 3000 nM
IC50 (hIL-6 mRNA): 300 to 3000 nM
IC50 [1]: ≤ 300 nM

Cc1noc(C)c1-c1ccc2[nH]nc(CN3CCCCC3)c2c1 [Example 10, 3,5-Dimethyl-4-[3-(1-piperidylmethyl)-1H-indazol-5-yl]isoxazole]
IC50 (hIL-17 mRNA): 300 to 3000 nM
IC50 (hIL-6 mRNA): 300 to 3000 nM
IC50 [1]: ≤ 300 nM

Cc1noc(C)c1-c1ccc2[nH]nc(CN3CCN(C)CC3)c2c1 [Example 11, 3,5-Dimethyl-4-[3-[(4-methylpiperazin-1-yl)methyl]-1H-indazol-5-yl]isoxazole]
IC50 (hIL-17 mRNA): 300 to 3000 nM
IC50 (hIL-6 mRNA): 3000 to 30000 nM
IC50 [1]: 300 to 3000 nM

Cc1noc(C)c1-c1ccc2[nH]nc(CN3CCC(C#N)CC3)c2c1 [Example 12, 1-[[5-(3,5-Dimethylisoxazol-4-yl)-1H-indazol-3-yl]methyl]piperidine-4-carbonitrile]
IC50 (hIL-6 mRNA): 300 to 3000 nM
IC50 [1]: ≤ 300 nM

COC1CCN(Cc2n[nH]c3ccc(-c4c(C)noc4C)cc23)CC1 [Example 13, 4-[3-[(4-Methoxy-1-piperidyl)methyl]-1H-indazol-5-yl]-3,5-dimethyl-isoxazole]
IC50 (hIL-6 mRNA): 300 to 3000 nM
IC50 [1]: 300 to 3000 nM

Cc1noc(C)c1-c1ccc2[nH]nc(CN3CCOCC3)c2c1 [Example 14, 4-[[5-(3,5-Dimethylisoxazol-4-yl)-1H-indazol-3-yl]methyl]morpholine]
IC50 (hIL-6 mRNA): 3000 to 30000 nM
IC50 [1]: 300 to 3000 nM
